{"source": "patent US20050137522A1", "about": "“System for infusing insulin to a subject to improve impaired hepatic glucose processing” (priority 2003, published 2005)", "type_in_all_cases": "in vivo, human", "key": {"[1]": {"test_system": "type 1 DM patients with nephropathy", "assay": "18-month multi-center, prospective, controlled study of CIIIT on progression of diabetic nephropathy", "method": "A study was conducted to assess the effects of Chronic Intermittent Intravenous Insulin Therapy (CIIIT) on the progression of diabetic nephropathy in patients with type 1 diabetes mellitus (DM). This 18-month multi-center, prospective, controlled study involved 49 type 1 DM patients with nephropathy who were following the Diabetes Control and Complications Trial (DCCT) intensive therapy (IT) regimen. Of these, 26 patients formed the control group C, which continued on IT, while 23 patients formed the treatment group (T) and underwent, in addition to IT, weekly CIIIT. […] For all of the above listed examples, after the initial few days of treatment, the patients underwent treatment once a week, each treatment day consisting of three infusions of insulin accompanied by ingestion of carbohydrates. The infusion device used to infuse the insulin was the BIONICA MD-110 pump. Typically there were ten pulses given over a period of one hour, and a rest period of one hour was taken between infusions of insulin. The form in which the carbohydrates were ingested changed from time to time and included eating foods of high glycemic index including but not limited to bread and cake. The patients' circulating glucose was measured once every thirty minutes by the finger stick method currently used by most diabetic patients. […]"}, "[2]": {"test_system": "diabetic patients with retinopathy", "assay": "Case reports: retinopathy treated with the subject method", "source_text": "A middle-aged person with type 1 diabetes for 38 years suffered from macular degeneration (retinopathy). They were unable to drive at night. […] The patient has been receiving treatment for 4 years.\nA middle-aged type 2 diabetic patient had proliferative diabetic retinopathy with severe bleeding. Multiple photocoagulation scars made additional photocoagulation impossible. […] The patient has been using the subject method for 5 years, and they have had no further bleeding of the retina and no further photocoagulation.\n(§1) For all of the above listed examples, after the initial few days of treatment, the patients underwent treatment once a week, each treatment day consisting of three infusions of insulin accompanied by ingestion of carbohydrates. The infusion device used to infuse the insulin was the BIONICA MD-110 pump. Typically there were ten pulses given over a period of one hour, and a rest period of one hour was taken between infusions of insulin. The form in which the carbohydrates were ingested changed from time to time and included eating foods of high glycemic index including but not limited to bread and cake. The patients' circulating glucose was measured once every thirty minutes by the finger stick method currently used by most diabetic patients. […]"}, "[3]": {"test_system": "type 2 diabetic patient with diabetes related kidney disease", "assay": "Case report: diabetes related kidney disease (proteinuria) treated with the subject method", "settings": "before treatment 1500 milligrams of protein during 24 hours, rising 500 milligrams/24 hours/year; 5 years of treatment", "method": "An older type 2 diabetic was exercising and had excellent circulating glucose control under intense insulin therapy including 3-4 injections per day of subcutaneous insulin. Even so, their diabetes related kidney disease had progressed to the point where they were discharging 1500 milligrams of protein during a 24-hour period and the rate of increase was 500 milligrams/24 hours/year. After using the subject method, the patient's proteinuria was reduced to 600-800 milligrams/24 hours. They have been using the method for 5 years.\nas §1"}, "[4]": {"test_system": "diabetic patients with leg ulcers", "assay": "Case reports: diabetes related leg ulcers treated with the subject method", "settings": "ulcers not responding to any available therapy, Examples 10 and 11; listed as subject method", "source_text": "An older type 2 diabetic had one amputated leg as a result of diabetes related ulcers on that leg. They had developed ulcers on the other leg that would not respond to any available therapy and was in danger of losing the other leg to amputation. […] This patient used the subject method for several more years, and no additional ulcers formed.\nA middle-aged type 1 diabetic patient had developed severe ulcers on both legs, which would not heal with any available treatment. […] The patient has been using the subject method now for 13 years.\nas §1"}, "[5]": {"assay": "Circulating glucose by finger stick during insulin pulse treatments", "settings": "during the first treatment; all examples; finger stick every thirty minutes", "source_text": "(§2) For all of the above listed examples, after the initial few days of treatment, the patients underwent treatment once a week, each treatment day consisting of three infusions of insulin accompanied by ingestion of carbohydrates. The infusion device used to infuse the insulin was the BIONICA MD-110 pump. Typically there were ten pulses given over a period of one hour, and a rest period of one hour was taken between infusions of insulin. The form in which the carbohydrates were ingested changed from time to time and included eating foods of high glycemic index including but not limited to bread and cake. The patients' circulating glucose was measured once every thirty minutes by the finger stick method currently used by most diabetic patients. […] Table 1 below summarizes by the above examples the number of units of insulin per pulse administered and the amount of glucose ingested for each series of pulses: […]"}, "[6]": {"test_system": "patients suffering from senile dementia", "assay": "Senile dementia in patients treated with Hepatic Activation / the present invention", "settings": "diabetic patients with senile dementia", "source_text": "On many occasions patients who have been diabetics as well as having dementia have been treated with the method of the current invention. Dementia appears to be related to poor metabolism of glucose in the brain, which may well be the result of constricted flow of blood. This poor metabolism is at least in part the cause of the dementia.\nA diabetic who was suffering from advanced senile dementia was placed in a nursing home because of excessive confusion, weakness, disorientation and lack of memory. Because the nursing home was not keeping up the strict four shot regimen needed by the patient for their diabetic blood sugar control, the patient's children removed the patient from the nursing home. The attending doctor recommended Hepatic Activation. Once the patient was activated, they returned to a totally independent living style.\n(§3) For all of the above listed examples, after the initial few days of treatment, the patients underwent treatment once a week, each treatment day consisting of three infusions of insulin accompanied by ingestion of carbohydrates. The infusion device used to infuse the insulin was the BIONICA MD-110 pump. […] The patients' circulating glucose was measured once every thirty minutes by the finger stick method currently used by most diabetic patients. […]"}, "[7]": {"test_system": "diabetic patients with heart disease", "assay": "Case reports: diabetic heart disease treated with the subject method", "source_text": "A middle-aged person with type 2 diabetes for 17 years was suffering from severe dilated cardiomyopathy (ejection fraction 14-19%). They were placed on the list to receive a heart transplant prior to starting treatment with the subject method. […] The patient has been receiving treatment for 10 years and is still off the heart transplant list. Their ejection fraction is currently 29-32%.\nA middle-aged type 2 diabetic patient had severe heart disease including congestive heart failure and severe artereosclerotic heart disease. The patient was scheduled for heart surgery but because of their poor condition, surgeons refused to operate.\nAn older type 1 diabetic patient who was diabetic was scheduled for a coronary artery by-pass graft to correct their diabetes related heart disease. The surgeons were reluctant to operate in the condition they were in because of their advanced diabetes related arteriosclerosis. They were scheduled for a single vessel graft. […] They continuing using the subject method for several years after the surgery with no further deterioration in their diabetes related heart disease.\nas §2"}, "[8]": {"test_system": "diabetic patients with neuropathy", "assay": "Case reports: diabetic neuropathy treated with the subject method", "source_text": "A middle-aged person with Type 1 diabetes for more than 22 years suffered from polyneuropathy. They had generalized pain and was unable to walk or even wear stockings because of the pain.\nA middle-aged person with Type 1 diabetes for more than 30 years had severe peripheral neuropathy, was in constant pain below the knees and had difficulty sleeping at night. […] They have been using the treatment for eight years.\nAn elder type 2 diabetic patient had severe painful peripheral neuropathy to the point that they were unable to walk and used a wheelchair. […] Because of financial reasons, they stopped the therapy. As a result, the neuropathy returned, and they returned to using a wheelchair.\nA middle-aged type 1 diabetic patient had severe neuropathy. They were a parent of two children who was bed-ridden with autonomic neuropathy before using the subject method two years ago. Their muscles had atrophied, they could not digest their food, they had been told that their nerves were dying inside them as a result of their diabetes. They stated that if they had not have two children, they would have taken their life. They had to quit their job, went on disability and was in an out of the hospital very often. They had welts on their head causing hair loss. They had no sensation in their feet, they had constant nausea, and they couldn't sleep at night because of the pain. They had insulin absorption problems and tried all different ways to improve the absorption of insulin into their body. For a number of years they injected themself intramuscularly because they felt that they obtained the best absorption of insulin that way. […] They have not been in the hospital since. […]\nas §3, with “carbohydrates.” for “carbohydrates. The infusion device used to infuse the insulin was the BIONICA MD-110 pump.”"}, "[9]": {"test_system": "type 2 diabetic male suffering with autonomic neuropathy", "assay": "Case report: elevated blood pressure with autonomic neuropathy treated with the subject method", "settings": "before treatment 200/120 despite intensive insulin therapy; 5 years of treatment", "source_text": "An older type 2 diabetic […] suffering with autonomic neuropathy had very elevated blood pressure readings of 200/120 despite a rigorous program to regulate their circulating glucose using intensive insulin therapy of 3 to 4 subcutaneous insulin injections daily. As a result of using the subject method, their blood pressure decreased to 120/80. They have been using the method for 5 years.\nas §2"}, "[10]": {"settings": "type 1 patient with severe autonomic neuropathy, Example 14"}}, "note": "“Also recorded” adds a separate entry of the source."}
{"substance": "insulin [CIIIT]", "values": [{"measurement": "progression of diabetic nephropathy", "setting": "[1]; CIIIT added to IT in type 1 DM patients with overt nephropathy", "value": "markedly reduce the progression of diabetic nephropathy"}, {"measurement": "rate of CrCl decline", "setting": "[1]; type 1 DM patients with nephropathy, 18 months, T group (weekly CIIIT added to IT, 23 patients) vs C group (IT alone, 26 patients), P=0.0343", "value": "2.21±1.62", "unit": "ml/min/yr"}, {"measurement": "eyesight", "setting": "[2]; type 1 person, macular degeneration (retinopathy), unable to drive at night before treatment, 4 years of treatment", "value": "eyesight improved to the point where night driving was no longer a concern"}, {"measurement": "retinal bleeding", "setting": "[2]; type 2 male, proliferative diabetic retinopathy with severe bleeding, 5 years of treatment", "value": "the bleeding stopped, and there was no further deterioration of the retina"}, {"measurement": "proteinuria", "setting": "[3]", "value": "600-800 milligrams/24 hours"}, {"measurement": "leg ulcers", "setting": "[4]", "value": "the ulcers on their second leg healed; also recorded: the ulcers healed and have never returned"}, {"measurement": "rise of circulating glucose levels", "setting": "[5]", "value": "100 to 150", "unit": "mg/dL"}, {"measurement": "senile dementia symptoms", "setting": "[6]; listed as Hepatic Activation", "value": "significant improvement in their motor skills, memory, and cognitive function"}, {"measurement": "senile dementia symptoms", "setting": "[6]; listed as present invention", "value": "clearly shown improvement in confusion, weakness, disorientation, cognitive function and lack of memory"}, {"measurement": "postoperative recovery", "setting": "[7]; after by-pass surgery, Examples 6 and 8, listed as subject method", "value": "normal postoperative recovery"}, {"measurement": "insulin intake", "setting": "[7]; same patient, Example 4, before treatment 150 units a day", "value": "24-26 units/day"}, {"measurement": "cardiac condition / need or fitness for heart surgery", "setting": "[7]; single patients, Examples 4, 6, 8, listed as subject method", "value": "no longer required a heart transplant; also recorded: could withstand 4-vessel by-pass surgery; also recorded: their condition improved to the point where the doctors performed two instead of one grafts"}, {"measurement": "ejection fraction", "setting": "[7]; type 2 diabetic patient, severe dilated cardiomyopathy, before treatment 14-19%, after 10 years of treatment", "value": "29-32%"}, {"measurement": "neuropathic pain after treatment", "setting": "[8]; single patients with polyneuropathy / peripheral neuropathy, listed as subject method", "value": "the pain has been reduced to the point where the person enjoys rigorous exercise; also recorded: no longer takes pain medication and has no twinges of pain in their legs; also recorded: the pain had subsided to the point where they no longer used a wheelchair"}, {"measurement": "gastroparesis", "setting": "[8]; [10]", "value": "Her gastroparesis was reversed"}, {"measurement": "numbness in legs", "setting": "[8]; [10]", "value": "The numbness in their legs has gone away"}, {"measurement": "blood pressure", "setting": "[9]", "value": "120/80"}]}
